Laboratory results from ChEMBL document CHEMBL3988442, “University of Dundee, Small-Polar-MMV Screening Library” (2021).
Values joined by “and” are separate entries in the source; they are usually repeats but may differ in a detail not shown here. Equal entries are not always repeated.

Columns and labels:
[1] = microbe, parasite or virus in culture; settings: Mycobacterium tuberculosis, 96 h, read-out: pIC50 (converted)
[2] = tested on: Mycobacterium tuberculosis; experiment: Cornell M. t heat shock assay; type: functional, organism-based; settings: Mycobacterium tuberculosis
[3] = microbe, parasite or virus in culture; settings: Mycobacterium tuberculosis, 72 h, read-out: pIC50 (converted)
Leishmania donovani = experiment: Leishmania intramacrophage assay; type: functional, organism-based
[4] = In vitro enzyme assay to detect hydrolysis of chlorophenol red-beta-D-[…] directly proportional to the number of Toxoplasma stably expressing beta-galactosidase; type: functional, organism-based, Toxoplasma gondii
[5] = target: Sialic acid-binding Ig-like lectin 9 (Homo sapiens, UniProt Q9Y336); experiment: Hs-Siglec9 ALPHAscreen SOP 20170721
Sialic acid-binding Ig-like lectin 9, sequence (Q9Y336 whole entry): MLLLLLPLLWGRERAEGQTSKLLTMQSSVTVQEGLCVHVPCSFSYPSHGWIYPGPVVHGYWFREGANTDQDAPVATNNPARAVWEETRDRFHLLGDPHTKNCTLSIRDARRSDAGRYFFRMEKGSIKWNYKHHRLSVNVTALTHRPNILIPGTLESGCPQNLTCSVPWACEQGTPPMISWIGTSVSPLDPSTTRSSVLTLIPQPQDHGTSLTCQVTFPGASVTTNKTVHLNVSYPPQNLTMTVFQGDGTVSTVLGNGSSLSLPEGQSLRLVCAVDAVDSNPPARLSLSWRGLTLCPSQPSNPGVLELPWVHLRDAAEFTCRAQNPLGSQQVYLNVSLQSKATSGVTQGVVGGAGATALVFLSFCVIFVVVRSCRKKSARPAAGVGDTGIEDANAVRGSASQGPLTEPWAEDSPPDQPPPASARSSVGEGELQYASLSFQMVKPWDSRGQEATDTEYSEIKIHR

Row | SMILES | IC50 [5] | other results
1 | Cc1cc(=O)[nH]c(-n2nc(C3CC3)cc2N)n1 | – | IC50 [1]: 41.2 µM; IC50 [2]: 27.5 µM; IC50 [3]: 30.1 µM; pIC50 (Leishmania donovani): < 4.3 and 4.677
2 | Cc1nc(-n2nc(C3CC3)cc2NC(=O)C(C)C)[nH]c(=O)c1C | – | IC50 [1]: 14.2 µM; IC50 [2]: 7.58 µM; pIC50 [4]: 5.686; IC50 ([4]; Toxoplasma gondii): 3.09 µM; IC50 [3]: 10.2 µM
3 | Cc1cc(CNC(=O)c2ccno2)c(C)o1 | > 30.2 µM | –
4 | O=C(NCc1nc2ccccc2[nH]1)c1cc2n(n1)CCCO2 | > 30.2 µM | –
5 | CCNC(=O)c1cc2n(n1)CCCO2 | > 30.2 µM | –
6 | CCOC(=O)CNC(=O)c1cc2n(n1)CCCO2 | > 30.2 µM | –
7 | CCOC(=O)Cc1csc(NC(=O)c2cc3n(n2)CCCO3)n1 | > 30.2 µM | –
8 | CCS(=O)(=O)CCNC(=O)c1cc2n(n1)CCCO2 | > 30.2 µM | –
9 | Cc1cc(CNC(=O)c2cnoc2C)c(C)o1 | > 30.2 µM | –
10 | N#Cc1ccc2c(c1)CN(C(=O)c1nc[nH]n1)C2c1cnco1 (stereo not drawn) | > 30.2 µM | –
11 | N#Cc1ccc2c(c1)CN(C(=O)C1CC=CC1)C2c1cnco1 (stereo not drawn) | > 30.2 µM | –
12 | CC(C)NC(=O)N1CCC2(CC1)COc1ccccc1S(=O)(=O)N(C)C2 | > 30.2 µM | –
13 | CN1CC2(CCN(C(=O)C3CCC3)CC2)COc2ccccc2S1(=O)=O | > 30.2 µM | –
14 | CCN1CC2(CCN(C(=O)N(C)C)CC2)COc2ccccc2S1(=O)=O | > 30.2 µM | –
15 | COCCN1CCC2(CC1)COc1ccccc1S(=O)(=O)N(C)C2 | > 30.2 µM | –
16 | CN(C)CC(=O)N1CCC2(CC1)COc1ccccc1S(=O)(=O)N(C)C2 | > 30.2 µM | –

Row | SMILES | IC50 [5] | other results
17 | COCC(=O)N1CCC2(CC1)COc1ccccc1S(=O)(=O)N(C)C2 | > 30.2 µM | –
18 | CCn1ncc2c1C(COC)CN(Cc1nccs1)C2 (stereo not drawn) | > 30.2 µM | –
19 | CCOCC1CN(Cc2ccsc2)Cc2cnn(C)c21 (stereo not drawn) | > 30.2 µM | –
20 | CCn1ncc2c1C(COC)CN(Cc1ccco1)C2 (stereo not drawn) | > 30.2 µM | –
21 | CCn1ncc2c1C(COC)CN(Cc1ccc(C)o1)C2 (stereo not drawn) | > 30.2 µM | –
22 | CCn1ncc2c1C(COC)CN(Cc1cnn(C)c1)C2 (stereo not drawn) | > 30.2 µM | –
23 | Cc1cc(CN2C[C@@H]3COC[C@]3(COCC(=O)N(C)C)C2)no1 | > 30.2 µM | –
24 | O=c1[nH]nc(-c2cccs2)c2sc(N3CCOCC3)nc12 | > 30.2 µM | –
25 | CC(C)NC(=O)C1CCN(c2nc3nc[nH]c(=O)c3s2)CC1 | > 30.2 µM | –
26 | CNC(=O)C1CCN(c2nc3nc[nH]c(=O)c3s2)CC1 | > 30.2 µM | –
27 | O=C(C1CCN(c2nc3nc[nH]c(=O)c3s2)CC1)N1CCCCC1 | > 30.2 µM | –
28 | O=C(NC1CC1)C1CCN(c2nc3nc[nH]c(=O)c3s2)CC1 | > 30.2 µM | –
29 | COC(=O)CC1CCN(C(=O)c2ccc(C)cc2)CC1 | > 30.2 µM | –
30 | COC(=O)CC1CCN(C(=O)c2ccc(-n3nnnc3C)cc2)CC1 | > 30.2 µM | –
31 | COC(=O)CC1CCN(C(=O)c2ccccc2-n2nnnc2C)CC1 | > 30.2 µM | –
